These results are taken from PubChem BioAssay (NCI).

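Tested at 5 concentrations; 48 h exposure; 96-well plates; endpoints linearly interpolated, else capped at highest concentration. GI50 = concentration required for 50% inhibition of growth. TGI denotes the concentration required for complete inhibition of growth.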

Test systems include HCC-2998 colon; NCI-H23 lung; 786-0 renal; UACC-257 melanoma; MDA-MB-231 breast; SNB-19 CNS; SN12C renal; OVCAR-8 ovarian; SK-MEL-28 melanoma; UACC-62 melanoma.
What all share (assay): NCI anticancer screen, dose series, 48 h

On to `CCOC(=O)c1cc2cc3c4c(c2oc1=O)CCCN4CCC3`, for which the TGI is greater than 100 µM with HCC-2998 colon; greater than 100 µM in the experiment with NCI-H23 lung; greater than 100 µM in the experiment on 786-0 renal; greater than 100 µM in the experiment with UACC-257 melanoma; 69.2 µM in the experiment on MDA-MB-231 breast; greater than 100 µM in the experiment with SNB-19 CNS. Moreover, the TGI was greater than 100 µM in the experiment on SN12C renal, 72.9 µM in the experiment with OVCAR-8 ovarian and greater than 100 µM with SK-MEL-28 melanoma.

With `CCCCCCCCOC(=O)CC[C@@H](C)[C@H]1CC[C@H]2[C@@H]3[C@H](OC(=O)CCN)C[C@@H]4C[C@H](OC(=O)CCN)CC[C@]4(C)[C@H]3C[C@H](OC(=O)CCN)[C@]12C`, the GI50 in the experiment on HCC-2998 colon was 13.8 µM; with NCI-H23 lung it was 10 µM; in the experiment on UACC-62 melanoma, 3.45 µM; in the experiment on 786-0 renal, 15 µM; with UACC-257 melanoma, 3.84 µM; in the experiment on MDA-MB-231 breast, 2.44 µM. Further, the GI50 with SNB-19 CNS was 3.48 µM; in the experiment on SN12C renal it was 6.62 µM; in the experiment on OVCAR-8 ovarian it was 2.14 µM; in the experiment on SK-MEL-28 melanoma, 3.52 µM. Further, the TGI in the experiment on HCC-2998 colon is 39 µM; in the experiment on NCI-H23 lung, 29.9 µM; in the experiment on UACC-62 melanoma it was 12.7 µM; in the experiment on 786-0 renal, 37.1 µM; with UACC-257 melanoma, 16.5 µM; in the experiment on MDA-MB-231 breast, 7.9 µM. Also, the TGI in the experiment on SNB-19 CNS amounted to 13.8 µM; in the experiment on SN12C renal, 22.2 µM; with OVCAR-8 ovarian, 4.62 µM; in the experiment on SK-MEL-28 melanoma it was 15.1 µM.

Regarding `Nc1nonc1-c1nc2cnccc2n1C1CC1`, the GI50 in the experiment with HCC-2998 colon was 12.4 µM; in the experiment with NCI-H23 lung, 7.3 µM; in the experiment with UACC-62 melanoma, 7.59 µM; in the experiment with 786-0 renal it was 5.44 µM; in the experiment on UACC-257 melanoma, 18.1 µM; in the experiment on MDA-MB-231 breast, 8.75 µM. For the same compound, the GI50 in the experiment on SNB-19 CNS was 12 µM; with SN12C renal it was 7.03 µM; in the experiment with OVCAR-8 ovarian, 6.83 µM; in the experiment on SK-MEL-28 melanoma, 8.47 µM. In addition, the TGI in the experiment on HCC-2998 colon, with NCI-H23 lung, in the experiment with UACC-62 melanoma, in the experiment on 786-0 renal, in the experiment on UACC-257 melanoma and in the experiment on MDA-MB-231 breast was greater than 25 µM throughout. Further, the TGI in the experiment on SNB-19 CNS was greater than 25 µM; in the experiment with SN12C renal, greater than 25 µM; in the experiment on OVCAR-8 ovarian it was greater than 25 µM; in the experiment on SK-MEL-28 melanoma, greater than 20.9 µM.

Turning to `O=c1c2cc(F)ccc2sc2c(N3CCNCC3)nc3ccc(F)cc3c12`, the GI50 is 1.74 µM in the experiment with HCC-2998 colon; 1.67 µM in the experiment on NCI-H23 lung; 1.74 µM in the experiment with UACC-62 melanoma; 1.49 µM in the experiment with 786-0 renal; 1.88 µM in the experiment on UACC-257 melanoma; 1.42 µM with MDA-MB-231 breast. The GI50 with SNB-19 CNS is 1.69 µM; in the experiment on SN12C renal, 1.58 µM; in the experiment on SK-MEL-28 melanoma, 1.74 µM. Besides, the TGI was 3.4 µM in the experiment on HCC-2998 colon; 3.17 µM with NCI-H23 lung; 3.19 µM in the experiment with UACC-62 melanoma; 2.98 µM with 786-0 renal; 3.7 µM in the experiment on UACC-257 melanoma; 2.79 µM in the experiment with MDA-MB-231 breast. For the same compound, the TGI worked out at 3.2 µM in the experiment on SNB-19 CNS, 3.05 µM in the experiment on SN12C renal and 3.17 µM with SK-MEL-28 melanoma.

With `COc1cccc(/C(C#N)=C/c2nc3c(N4CCOCC4)nc(Cl)nc3n2C)c1`, the GI50 in the experiment with HCC-2998 colon is 1.69 µM; in the experiment with NCI-H23 lung, 1.52 µM; in the experiment on UACC-62 melanoma it was 1.2 µM; in the experiment on 786-0 renal, 1.59 µM; in the experiment on UACC-257 melanoma, 1.41 µM; in the experiment with MDA-MB-231 breast, 1.38 µM. Moreover, the values for the GI50 in the experiment with SN12C renal, in the experiment on OVCAR-8 ovarian and in the experiment on SK-MEL-28 melanoma were 1.1 µM, 1.01 µM and 1.61 µM, respectively. Besides, the TGI with HCC-2998 colon worked out at 3.24 µM; in the experiment with NCI-H23 lung, 3.19 µM; with UACC-62 melanoma, 2.47 µM; in the experiment on 786-0 renal it was 3.05 µM; with UACC-257 melanoma, 2.9 µM; with MDA-MB-231 breast it was 2.82 µM. Moreover, the TGI worked out at 2.45 µM with SN12C renal, 3.07 µM in the experiment on OVCAR-8 ovarian and 3.1 µM with SK-MEL-28 melanoma.

Turning to `NS(=O)(=O)c1ccc(-n2nc3c(c2-c2ccc(Cl)cc2)Cc2ccccc2-3)cc1`, the GI50 with HCC-2998 colon was 18.3 µM; in the experiment on NCI-H23 lung, 3.27 µM; in the experiment on UACC-62 melanoma, 13.7 µM; in the experiment with 786-0 renal it was 14.6 µM; in the experiment with UACC-257 melanoma it was 20.6 µM; in the experiment with MDA-MB-231 breast it was 14.8 µM. In addition, the GI50 in the experiment with SNB-19 CNS is 31.7 µM; in the experiment with SN12C renal it was 5.49 µM; with OVCAR-8 ovarian it was 21.6 µM; in the experiment on SK-MEL-28 melanoma it was 18.3 µM. Besides, the TGI with HCC-2998 colon came out at 35.7 µM; in the experiment on NCI-H23 lung, 19.6 µM; with UACC-62 melanoma it was 26.9 µM; in the experiment with 786-0 renal it was 30.7 µM; with UACC-257 melanoma it was 39.5 µM; in the experiment with MDA-MB-231 breast, 30.1 µM. Also, the TGI in the experiment with SNB-19 CNS is greater than 100 µM; in the experiment with SN12C renal it was 18.3 µM; in the experiment with OVCAR-8 ovarian it was 44 µM; with SK-MEL-28 melanoma, 35 µM.

As for `C=CCNc1nc2c(s1)C(=O)c1ccccc1C2=O`, the TGI came to 35.3 µM in the experiment with HCC-2998 colon; 21.8 µM in the experiment with NCI-H23 lung; 9.37 µM in the experiment on UACC-62 melanoma; 28.5 µM in the experiment on 786-0 renal; 7.2 µM with UACC-257 melanoma; 23.8 µM with MDA-MB-231 breast. Besides, the TGI with SNB-19 CNS is 19.2 µM; with SN12C renal, 27.4 µM; with OVCAR-8 ovarian, 20.1 µM; with SK-MEL-28 melanoma, 32.8 µM.

Regarding `COC(=O)c1cc2c3ccccc3n3c(=O)c4cc5ccc(N(S(=O)(=O)c6ccc(C)cc6)S(=O)(=O)c6ccc(C)cc6)cc5nc4c(n1)c23`, the GI50 with HCC-2998 colon is greater than 100 µM; in the experiment on NCI-H23 lung, 36.6 µM; with UACC-62 melanoma, 29.7 µM; with 786-0 renal it was 13.6 µM; with UACC-257 melanoma, greater than 100 µM; with MDA-MB-231 breast, 21.4 µM. The GI50 was 26.6 µM in the experiment on SNB-19 CNS, greater than 100 µM with SN12C renal, greater than 100 µM in the experiment on OVCAR-8 ovarian and greater than 100 µM in the experiment on SK-MEL-28 melanoma. In addition, the TGI is greater than 100 µM in the experiment with HCC-2998 colon; greater than 100 µM in the experiment with NCI-H23 lung; greater than 100 µM with UACC-62 melanoma; 43.9 µM with 786-0 renal; greater than 100 µM in the experiment with UACC-257 melanoma; greater than 100 µM with MDA-MB-231 breast. Moreover, the TGI in the experiment with SNB-19 CNS was 78.3 µM; in the experiment on SN12C renal, greater than 100 µM; with OVCAR-8 ovarian, greater than 100 µM; with SK-MEL-28 melanoma, greater than 100 µM.
